This is an account of results in patent US20230286983A1 (4E Therapeutics, Inc., priority 2020, published 2023).

pIC50: −log10 of the molar value.

In one data set the test system is P-gp (human MDR1, ABCB1). Briefly: MDCK-MDR1 permeability (blood brain barrier permeability). It is filed as in vitro ADME, Canine. Particulars: dog.
Another data set deals with MDCK-MDR1. Described as above. In kind it is in vitro ADME, Canine. The settings on record: 5 μM.
A further data set concerns the target MNK2 (Homo sapiens, UniProt Q9HBH9). Briefly: MNK2 substrate phosphorylation assay. The settings on record: recombinant human kinase. In kind it is biochemical.
Data set [1] is described as follows: Liver microsome stability, mouse. The settings on record: mouse, liver microsomes, mouse liver microsomes, Table 11b; read-out: T1/2. It is filed as in vitro ADME. On the technique in general: Liver microsomes are a subcellular fraction often used to study metabolism.
Data set [2] relates to eIF4E phosphorylation at Serine 209 in the human embryonic kidney (HEK) 293 cell line. In words: eIF4E phosphorylation in HEK 293 cells (fluorescent plate reader). It is filed as cell-based. The settings on record: eIF4E phosphorylation at Serine 209, 2 hours exposure. Here is the method: The ability of MNK inhibitors described herein to inhibit eIF4E phosphorylation at Serine 209 in the human embryonic kidney (HEK) 293 cell line was tested by exposing the cells to compound for 2 hours and then measuring eIF4E phosphorylation with a phosphorylation-specific antibody in a fluorescent plate reader. These experiments were done with HEK-293 cells plated on 96 well plates. Following treatment, cells were fixed with ice cold methanol for 10 min and then washed in 1× phosphate buffered saline (PBS) and the permeabilized with 0.02% Triton X-100 in 10% normal goat serum made up in PBS. Primary antibody was applied overnight at a concentration dilution of 1:2000 (p-eIF4E antibody from Cell Signaling ab76256). Following washing, cells were then exposed to secondary antibody conjugated to alexa-fluor 488 and then visualized on a Syngergy HTX plate reader. Fluorescence for p-eIF4E was measured and normalized to total DAPI fluorescence to determine the percentage of eIF4E phosphorylation in each well. Data were plotted in Graphpad Prism V8 to determine concentration-response effects and calculate IC50 values.

For the next data set, the target named is MNK1 (Homo sapiens, UniProt Q9BUB5). In words: MNK1 substrate phosphorylation assay. In kind it is biochemical. Particulars: recombinant human kinase.
Chain of MNK1 (Q9BUB5 whole entry): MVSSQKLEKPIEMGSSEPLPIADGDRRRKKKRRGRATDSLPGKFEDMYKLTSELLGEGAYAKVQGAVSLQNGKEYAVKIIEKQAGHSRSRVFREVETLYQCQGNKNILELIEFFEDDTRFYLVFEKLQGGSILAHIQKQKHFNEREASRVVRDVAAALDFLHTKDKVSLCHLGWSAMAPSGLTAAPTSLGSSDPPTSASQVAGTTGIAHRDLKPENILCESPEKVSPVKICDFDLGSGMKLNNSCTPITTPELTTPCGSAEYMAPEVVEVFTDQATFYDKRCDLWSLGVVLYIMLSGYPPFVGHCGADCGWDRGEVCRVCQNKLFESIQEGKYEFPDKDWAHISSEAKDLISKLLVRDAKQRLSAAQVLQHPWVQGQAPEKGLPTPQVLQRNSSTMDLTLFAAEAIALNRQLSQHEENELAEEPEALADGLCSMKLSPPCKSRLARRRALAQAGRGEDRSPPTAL

Chain of MNK2 (Q9HBH9 whole entry): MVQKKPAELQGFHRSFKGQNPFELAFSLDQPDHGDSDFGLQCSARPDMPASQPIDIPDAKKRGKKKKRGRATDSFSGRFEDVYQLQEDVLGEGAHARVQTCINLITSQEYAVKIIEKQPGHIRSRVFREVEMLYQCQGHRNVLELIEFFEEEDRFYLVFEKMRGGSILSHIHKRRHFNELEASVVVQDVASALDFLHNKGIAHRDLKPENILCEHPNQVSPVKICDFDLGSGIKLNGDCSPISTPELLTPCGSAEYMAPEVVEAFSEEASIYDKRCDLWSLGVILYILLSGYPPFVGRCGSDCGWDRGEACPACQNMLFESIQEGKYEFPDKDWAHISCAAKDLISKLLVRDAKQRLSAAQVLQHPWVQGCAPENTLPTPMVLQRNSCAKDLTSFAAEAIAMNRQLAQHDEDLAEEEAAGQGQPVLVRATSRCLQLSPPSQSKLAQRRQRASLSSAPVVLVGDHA

As for `Cc1cc(Nc2cc(N)ncn2)c(=O)n2c1C(=O)NC21C[C@H]2COC[C@H]2C1` (single isomer, unassigned) [Compound 4ET-01-014A, 6′-((6-Aminopyrimidin-4-yl)amino)-8′-methyl-3a,4,6,6a-tetrahydro-1H,2′H,3H-spiro[cyclopenta[c]furan-5,3′-imidazo[1,5-a]pyridine]-1′,5′-dione], the efflux ratio at 5 μM in the data set with P-gp (human MDR1, ABCB1) (MDCK-MDR1, 5 μM, read-out: Efflux ratio (ratio B-A/A-B)) stood at 1.9. The “Papp A-B” value in the data set on MDCK-MDR1 (Apical to basolateral transport, average of two experiments) is 24.9 ×10⁻⁶ cm/s. Further, the “Papp B-A” value in the data set with MDCK-MDR1 (Basolateral to apical transport, average of two experiments) worked out at 46.4 ×10⁻⁶ cm/s. In addition, the pIC50 (in general, the negative decadic logarithm of the IC50, by convention in mol/L) at MNK2 was 8.40; in data set [2], 7.55; on MNK1, 7.59. The half-life in data set [1] was 4.5 h.

In the case of `Cc1cc(Nc2cc(NC(=O)C3CC3)ncn2)c(=O)n2c1C(=O)NC21Cc2ccccc2[C@@H]1F` (single isomer, unassigned) [Compound 4ET-03-052A, N-(6-((1′-Fluoro-8-methyl-1,5-dioxo-1,1′,3′,5-tetrahydro-2H-spiro[imidazo[1,5-a]pyridine-3,2′-inden]-6-yl)amino)pyrimidin-4-yl)cyclopropanecarboxamide], in the data set with P-gp (human MDR1, ABCB1) (MDCK-MDR1, Apical to basolateral transport, 5 μM, average of two experiments), the Papp A→B (in general, the apparent permeability from the apical to the basolateral side of a cell layer) at 5 μM was found to be 12.1 ×10⁻⁶ cm/s. The Papp B→A (usually the apparent permeability from the basolateral to the apical side of a cell layer) at 5 μM in the data set on P-gp (human MDR1, ABCB1) (MDCK-MDR1, Basolateral to apical transport, 5 μM, average of two experiments) worked out at 80.6 ×10⁻⁶ cm/s. The “Efflux ratio (ratio B-A/A-B)” value in the data set on MDCK-MDR1 amounted to 6.6. The pIC50 is 9.30 at MNK2; 7.72 in data set [2] (Homo sapiens, HEK293, 2 h); 8.33 on MNK1. In addition, in data set [1], the half-life stood at 1.83 h.
